From patent US20160060235A1, “Therapeutic Agent for Type 2 Diabetes” (NATIONAL UNIVERSITY CORPORATION KUMAMOTO UNIVERSITY, priority 2013, published 2016)

Key:
[1] = test system: pancreatic β cell-specific Cdkal1-deficient mouse; test: Tertiary screening: glucose tolerance after single administration; assay type: in vivo; conditions: 1 mg/kg transabdominally, glucose 1 g/kg after 30 minutes, versus saline administration group
Method: A pancreatic β cell-specific Cdkal1-deficient mouse and a wild-type mouse were each fasted overnight. Then, eperisone was transabdominally injected at a dose of 1 mg/kg to each mouse. Each control individual was prepared by the transabdominal injection of saline to each of a pancreatic β cell-specific Cdkal1-deficient mouse and a wild-type mouse. After 30 minutes, glucose was transabdominally injected at a dose of 1 g/kg to all of these mice. Blood was collected (5 μL) every 15 minutes from immediately after the administration of glucose. The blood glucose level in the mouse blood was measured using Accu-Chek AVIVA Nano (manufactured by F. Hoffmann-La Roche, Ltd.). The statistical test was conducted by repeated measure of two-way ANOVA.

[2] = test system: pancreatic β cell-specific Cdkal1-deficient mouse; test: Glucose tolerance after long-term (14 days) administration; assay type: in vivo; conditions: 1 mg/kg transabdominally once a day over 14 days, glucose 1 g/kg 36 hours after last dose; versus DMSO administration group
Method: Each low-molecular compound found positive in the screening was transabdominally injected once a day over 14 days at a dose of 1 mg/kg to a pancreatic β cell-specific Cdkal1-deficient mouse. A Cdkal1-deficient mouse was prepared as a control by the injection of saline containing DMSO. Finally, glucose was transabdominally injected at a dose of 1 g/kg to all of the mice 36 hours after the administration of the low-molecular compound. Blood was collected (5 μL) from the tail vein every 15 minutes from immediately after the administration of glucose. The blood glucose level in the mouse blood was measured using Accu-Chek AVIVA Nano (manufactured by F. Hoffmann-La Roche, Ltd.). The statistical test was conducted by repeated measure of two-way ANOVA.

[3] = test system: islet of Langerhans isolated from a pancreatic β cell-specific Cdkal1-deficient mouse; test: Secondary screening: insulin secretion experiment by glucose stimulation; assay type: cell-based; design: insulin secretion under low-concentration (2.8 mM) and high-concentration (16.7 mM) glucose stimulation / concentration of insulin secreted into the Ringer solution: unit of the concentration uncertain
Text: The islet of Langerhans was isolated from a pancreatic β cell-specific Cdkal1-deficient mouse (see non-patent document 11) according to the literature (Gotoh M., et al., Transplantation, 1987, 43 (5), p. 725-730). The chest of the mouse was opened under ether anesthesia, and the common bile duct was peeled off. The pancreas swollen by the gradual injection of a collagenase solution (320 U/mL, manufactured by Sigma-Aldrich Corp.) was excised. The pancreas containing collagenase was digested for 30 minutes in a water bath of 37° C. and then dispersed with a pipette. The islet of Langerhans was isolated using a concentration gradient of a Ficoll solution (manufactured by Amersham Pharmacia Biotech Inc.). The islet of Langerhans was incubated for 30 minutes while kept at 37° C. in a Ringer solution (119 mM sodium chloride, 4.74 mM potassium chloride, 1.19 mM monosodium dihydrogen phosphate, 25 mM sodium bicarbonate, 10 mM HEPES, 2.54 mM calcium chloride, 1.19 mM magnesium chloride, and 0.2% BSA) saturated with a mixed gas of 95% O2 and 5% CO2.
Each low-molecular compound found positive in the primary screening was dissolved in DMSO, and this solution was added at a final concentration of 10 mM to a Ringer solution containing glucose to prepare a Ringer solution. A Ringer solution supplemented only with DMSO was prepared as a control.
The isolated mouse islet of Langerhans was first cultured for 30 minutes in a Ringer solution containing a low concentration (2.8 mM) of glucose. Then, the Ringer solution was replaced with a Ringer solution containing the low-molecular compound and the low concentration of glucose. After 30 minutes, the Ringer solution was recovered, and a Ringer solution containing the low-molecular compound and a high concentration (16.7 mM) of glucose was subsequently added thereto. After 30 minutes, the Ringer solution was recovered. The amount of insulin released into the Ringer solution was detected using an insulin detection kit (Libs Insulin-Mouse (S type), manufactured by Shibayagi Co., Ltd) according to the protocol of the kit.

[4] = test system: E. coli harboring pACYCDuet-1-Phe; test: Primary screening: dual luciferase assay of translation accuracy (frameshift mistranslation reporter); assay type: cell-based; conditions: versus DMSO control; for relative translation accuracy with the translation accuracy of the control defined as 1: compound at final concentration of 10 μM, shake culture 1 hour; for improvement of translation accuracy as compared with the control (in words): existing therapeutic agents for diabetes, 10 μM
Text: The vector map of the prepared plasmid pACYCDuet-1-Phe (SEQ ID NO: 1) is shown in the left diagram of FIG. 1. The phenylalanine codon TTT was designed as NNN. When translation takes place according to the normal reading frame, the stop codon TAA appears immediately after TTT so that the sequence is not translated into firefly luciferase. On the other hand, if mistranslation occurs in TTT so as to skip one T, the stop codon is circumvented so that the sequence is correctly translated into firefly luciferase. This means that the higher the accuracy of translation is, the lower the fluorescence intensity of firefly luciferase is.
Renilla luciferase gene is also cloned into this plasmid as a control.
The E. coli harboring pACYCDuet-1-Phe was cultured overnight at 37° C. using 100 mL of a culture medium. After confirmation that OD550 reached 0.4 to 1, 1 mL of the culture medium was dispensed, and each low-molecular compound was added thereto at a final concentration of 10 μM. After shake culture for 1 hour, the E. coli was recovered and lysed by suspension in 10 mM Tris-HCl (pH 7.4), 1 mM magnesium chloride, and 0.1 mg/mL lysozyme (manufactured by Wako Pure Chemical Industries, Ltd.).
The activity of the firefly luciferase and the Renilla luciferase was measured using Dual-Luciferase Reporter Assay System (manufactured by Promega Corp.). To 5 μL of the E. coli lysate, 50 μL of an assay solution for the firefly luciferase was added for the measurement. Then, 50 μL of an assay solution for the Renilla luciferase was added thereto for the measurement. An E. coli lysate supplemented only with DMSO was prepared as a control.
The luminescence intensity of the firefly luciferase was corrected against that of the Renilla luciferase by use of the equation given below. This series of experimental approaches is plotted in FIG. 1.
Relative luminescence intensity=Firefly luciferase/Renilla luciferase
Relative translation accuracy=Relative luminescence intensity (from the addition of only DMSO)/Relative luminescence intensity (in the presence of the compound)

Row | Compound | blood glucose level after glucose administration [2] | relative translation accuracy with the translation accuracy of the control defined as 1 [4] | improvement of translation accuracy as compared with the control (in words) [4] | other results
1 | CCc1ccc(C(=O)C(C)CN2CCCCC2)cc1 (stereo not shown) [eperisone] | significantly decreased blood glucose level |  |  | blood glucose level after glucose administration [1]: significantly decreased blood glucose level; insulin secretion under low-concentration (2.8 mM) and high-concentration (16.7 mM) glucose stimulation ([3]; compound at final concentration of 10 (unit uncertain) in Ringer solution, 30 minutes each): accelerate insulin secretion only under the high-concentration glucose stimulation; relative amount of insulin secreted compared with glibenclamide ([3]; high-concentration (16.7 mM) glucose stimulation, glibenclamide defined as 1): accelerate insulin secretion more highly than glibenclamide
2 | CNCCC(Oc1ccc(C(F)(F)F)cc1)c1ccccc1 (stereo not shown) [fluoxetine] | significantly decreased blood glucose level | approximately 1.5 times |  | concentration of insulin secreted into the Ringer solution ([3]; low-concentration (2.8 mM) glucose stimulation, compound at final concentration of 10 (unit uncertain)): significantly improve insulin secretion
3 | COc1ccc(Cl)cc1C(=O)NCCc1ccc(S(=O)(=O)NC(=O)NC2CCCCC2)cc1 [glibenclamide] |  |  | none of the existing therapeutic agents for diabetes were shown to significantly improve translation accuracy | 
4 | CN(C)C(=N)N=C(N)N [metformin] |  |  | none of the existing therapeutic agents for diabetes were shown to significantly improve translation accuracy | 
5 | elvitegravir |  | approximately 8 times |  | 
